Data reported in patent US7208502B2, “Methods of treating conditions associated with an Edg-3 receptor” (Maniv Energy Capital, priority 2002, dated 2007).

Tests used:
Details in all cases: 10 μM; significance criteria ≧50% of max stimulation or inhibition
[1] = molecular target: T1, Dopamine D2L (Homo sapiens, UniProt P14416); experiment: Radioligand binding assay, 3H Spiperone
T1 construct: expressed in transfected cells; host or cells: CHO cells
Protocol: (§1) In order to test the selectivity of compounds, various enzyme assays as well as radioligand binding assays were performed using numerous non-Edg receptor targets as listed below.
(§2) A radioligand binding assay was performed using adrenergic α1 according to the method of Greengrass and Bremner 1979, Eur. J. Pharmacol. 55:323–326. A radioligand binding assay was performed using adrenergic α2 according to the method of Boyajian and Leslie, 1987, J. Pharmacol. Exp. Ther. 241:1092–1098. A radioligand binding assay was performed using adrenergic β according to the method of Feve et al., 1994, Proc. Natl. Acad. Sci. USA 91:5677–5681. A radioligand binding assay was performed using angiotensin AT2 according to the method of Whitebread et al., 1991, Biochem. Biophys. Res. Comm. 181:1365–1371. A radioligand binding assay was performed using calcium channel Type L, dihydropyridine according to the method of Ehlert et al., 1982, Life Sci. 30:2191–2202. A radioligand binding assay was performed using dopamine D2L according to the method of Bunzo et al., 1988, Nature 336:783–787. A radioligand binding assay was performed using endothelin ETA according to the method of Mihara et al., 1994, J. Phrmacol. Exp Ther. 268:1122–1127. A radioligand binding assay was performed using histamine H1 Central according to the method of Hill et al., 1978, J. Neurochem. 31:997–1004. […]
(§3) Quantitation Method: Radioligand Binding […]

[2] = molecular target: T2, Endothelin ETA (Homo sapiens, UniProt P25101); experiment: Radioligand binding assay, 125I Endothelin
T2 construct: expressed in transfected cells; host or cells: CHO cells
T2 sequence (P25101 21-427): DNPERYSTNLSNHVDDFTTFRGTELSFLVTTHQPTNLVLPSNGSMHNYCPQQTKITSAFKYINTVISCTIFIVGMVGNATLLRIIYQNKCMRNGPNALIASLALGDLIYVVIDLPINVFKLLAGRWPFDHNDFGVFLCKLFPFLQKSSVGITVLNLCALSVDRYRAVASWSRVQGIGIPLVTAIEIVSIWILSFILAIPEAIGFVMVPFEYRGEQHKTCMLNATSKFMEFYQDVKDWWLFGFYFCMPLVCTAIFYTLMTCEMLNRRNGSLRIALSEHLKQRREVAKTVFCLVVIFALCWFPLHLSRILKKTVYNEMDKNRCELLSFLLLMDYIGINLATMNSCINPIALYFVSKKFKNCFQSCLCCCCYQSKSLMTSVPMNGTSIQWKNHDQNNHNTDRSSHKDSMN
Protocol: as §1, §2, §3

[3] = tested on: Serotonin 5-HT1, non-selective; experiment: Radioligand binding assay, 3H Serotonin (5-HT) Trifluoroacetate; parameters: species or system Wistar rat
Protocol: as §1, §2, §3

T1 sequence (P14416 whole entry): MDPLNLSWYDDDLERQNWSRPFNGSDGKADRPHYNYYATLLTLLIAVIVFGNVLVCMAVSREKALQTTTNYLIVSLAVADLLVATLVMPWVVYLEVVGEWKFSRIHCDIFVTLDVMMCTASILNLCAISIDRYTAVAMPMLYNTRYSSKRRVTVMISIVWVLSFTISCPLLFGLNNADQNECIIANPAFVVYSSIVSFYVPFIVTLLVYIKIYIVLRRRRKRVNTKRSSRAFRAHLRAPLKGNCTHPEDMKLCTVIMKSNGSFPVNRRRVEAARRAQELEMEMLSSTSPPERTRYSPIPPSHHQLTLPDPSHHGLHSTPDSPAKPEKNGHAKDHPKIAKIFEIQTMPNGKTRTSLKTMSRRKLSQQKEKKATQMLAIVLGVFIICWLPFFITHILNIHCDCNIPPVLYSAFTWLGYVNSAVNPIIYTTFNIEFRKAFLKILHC

Cc1c(-c2ccccc2)nc2ccccc2c1C(=O)NCc1ccc(F)cc1 [Compound 101, 3-methyl-2-phenyl-quinoline-4-carboxylic acid 4-fluoro-benzylamide]
no activity: activity in standard binding assay, Dopamine D2L [1] | activity in standard binding assay, Endothelin ETA [2] | activity in standard binding assay, Serotonin 5-HT1, non-selective [3]
